Results reported in US20250248933A1, “Prophylactic and Therapeutic Agents for Upper Respiratory Tract Infections Caused by Influenza and Other Enveloped Viruses” (priority 2020, published 2025).

Key:
[1] = in vivo; cited from earlier work
rhinoviruses = conditions: cited from earlier work
common colds = conditions: 37 zinc-treated subjects; cited from earlier work
influenza viruses = conditions: determined by the present inventor
common cold germs = conditions: cited from earlier work
rhinovirus = conditions: cited from earlier work

CCCc1cc(=O)oc2c3c(c4c(c12)OC(C)(C)C=C4)O[C@H](C)[C@@H](C)[C@@H]3O [Calanolide A]
safety and tolerability [1]: safe and well tolerated

zinc
inhibition of replication of rhinoviruses (rhinoviruses): inhibit the replication
subjects asymptomatic after seven days (common colds): 86%

CCO [Ethanol, ethanol]
ability to kill influenza viruses (influenza viruses): ineffective
killing of common cold germs in oral mucosa (common cold germs): known to kill
activity against rhinovirus (rhinovirus): works well
